Type in all cases: cell-based
Assay [1] concerns the target T1, von Hippel-Lindau disease tumor suppressor/Bromodomain-containing protein 4 (Homo sapiens, UniProt O60885+P40337). Description: PROTAC activity at VHL/BRD4 in HEK293 cells assessed as induction of BRD4 degradation by measuring Tmax at 10 uM measured every 15 mins for 24 hrs in presence of VHL based ligand (2S,4R)-1-((S)-2-(2,3-dihydroxybenzamido)-3,3-dimethylbutanoyl)-4-hydroxy-N-(4-(4-methylthiazol-5-yl)benzyl)pyrrolidine-2-carboxamide by HiBiT based Combinatorial Ubiquitination Real-time PROteolysis analysis. Background: The HiBiT peptide binds its large partner to form an active luciferase.

Assay [2] concerns the target T1, von Hippel-Lindau disease tumor suppressor/Bromodomain-containing protein 4. In words: PROTAC activity at BRD4/VHL in human MCF7 cells assessed as induction of BRD4 degradation by measuring residual activity at 3 uM incubated for 24 hrs in presence of 100 nM VHL based ligand (2S,4R)-1-((S)-2-(2,3-dihydroxybenzamido)-3,3-dimethylbutanoyl)-4-hydroxy-N-(4-(4-methylthiazol-5-yl)benzyl)pyrrolidine-2-carboxamide by Western blot based Combinatorial Ubiquitination Real-time PROteolysis analysis. For orientation: A western blot detects proteins with antibodies after separation by electrophoresis.

Assay [3] shares this target. Description: PROTAC activity at BRD4/VHL in human MCF7 cells assessed as induction of BRD4 degradation by measuring residual activity at 30 nM incubated for 24 hrs in presence of 100 nM VHL based ligand (2S,4R)-1-((S)-2-(2,3-dihydroxybenzamido)-3,3-dimethylbutanoyl)-4-hydroxy-N-(4-(4-methylthiazol-5-yl)benzyl)pyrrolidine-2-carboxamide by Western blot based Combinatorial Ubiquitination Real-time PROteolysis analysis.

Assay [4] shares this target. Description: PROTAC activity at BRD4/VHL in human MCF7 cells assessed as induction of BRD4 degradation by measuring residual activity at 10 uM incubated for 24 hrs in presence of 100 nM VHL based ligand (2S,4R)-1-((S)-2-(2,3-dihydroxybenzamido)-3,3-dimethylbutanoyl)-4-hydroxy-N-(4-(4-methylthiazol-5-yl)benzyl)pyrrolidine-2-carboxamide by Western blot based Combinatorial Ubiquitination Real-time PROteolysis analysis.

Assay [5] has the same target. In words: PROTAC activity at VHL/BRD4 in HEK293 cells assessed as induction of BRD4 degradation by measuring maximal level of degradation at 1 uM measured every 15 mins for 24 hrs in presence of VHL based ligand (2S,4R)-1-((S)-2-(2,3-dihydroxybenzamido)-3,3-dimethylbutanoyl)-4-hydroxy-N-(4-(4-methylthiazol-5-yl)benzyl)pyrrolidine-2-carboxamide by HiBiT based Combinatorial Ubiquitination Real-time PROteolysis analysis.

The target is the same in assay [6]. Description: PROTAC activity at VHL/BRD4 in HEK293 cells assessed as induction of BRD4 degradation by measuring maximal level of degradation at 10 uM measured every 15 mins for 24 hrs in presence of VHL based ligand (2S,4R)-1-((S)-2-(2,3-dihydroxybenzamido)-3,3-dimethylbutanoyl)-4-hydroxy-N-(4-(4-methylthiazol-5-yl)benzyl)pyrrolidine-2-carboxamide by HiBiT based Combinatorial Ubiquitination Real-time PROteolysis analysis.

Assay [7] has the same target. Description: PROTAC activity at BRD4/VHL in human MCF7 cells assessed as induction of BRD4 degradation by measuring residual activity at 1 uM incubated for 24 hrs in presence of VHL based ligand (2S,4R)-1-((S)-2-(2,3-dihydroxybenzamido)-3,3-dimethylbutanoyl)-4-hydroxy-N-(4-(4-methylthiazol-5-yl)benzyl)pyrrolidine-2-carboxamide by Western blot based Combinatorial Ubiquitination Real-time PROteolysis analysis.

For assay [8] the target is unchanged. Description: PROTAC activity at BRD4/VHL in human MCF7 cells assessed as induction of BRD4 degradation by measuring residual activity at 300 nM incubated for 24 hrs in presence of 300 nM VHL based ligand (2S,4R)-1-((S)-2-(2,3-dihydroxybenzamido)-3,3-dimethylbutanoyl)-4-hydroxy-N-(4-(4-methylthiazol-5-yl)benzyl)pyrrolidine-2-carboxamide by Western blot based Combinatorial Ubiquitination Real-time PROteolysis analysis.

Assay [9] has the same target. In words: PROTAC activity at BRD4/VHL in human MCF7 cells assessed as induction of BRD4 degradation by measuring residual activity at 100 nM incubated for 24 hrs in presence of 3 uM VHL based ligand (2S,4R)-1-((S)-2-(2,3-dihydroxybenzamido)-3,3-dimethylbutanoyl)-4-hydroxy-N-(4-(4-methylthiazol-5-yl)benzyl)pyrrolidine-2-carboxamide by Western blot based Combinatorial Ubiquitination Real-time PROteolysis analysis.

For assay [10] the target is unchanged. Description: PROTAC activity at BRD4/VHL in human MCF7 cells assessed as induction of BRD4 degradation by measuring residual activity at 30 nM incubated for 24 hrs in presence of 300 nM BRD4 based ligand ((4S)-6-(4-chlorophenyl)-4-(2-(ethylamino)-2-oxoethyl)-1-methyl4Hbenzo[f][1,2,4]triazolo [4,3-a][1,4]diazepin-8-yl)boronic acid by Western blot based Combinatorial Ubiquitination Real-time PROteolysis analysis.

For assay [11] the target is unchanged. In words: PROTAC activity at BRD4/VHL in human MCF7 cells assessed as induction of BRD4 degradation by measuring residual activity at 3 uM incubated for 24 hrs in presence of 3 uM BRD4 based ligand ((4S)-6-(4-chlorophenyl)-4-(2-(ethylamino)-2-oxoethyl)-1-methyl4Hbenzo[f][1,2,4]triazolo [4,3-a][1,4]diazepin-8-yl)boronic acid by Western blot based Combinatorial Ubiquitination Real-time PROteolysis analysis.

The target is the same in assay [12]. In words: PROTAC activity at BRD4/VHL in human MCF7 cells assessed as induction of BRD4 degradation by measuring residual activity at 100 nM incubated for 24 hrs in presence of 300 nM BRD4 based ligand ((4S)-6-(4-chlorophenyl)-4-(2-(ethylamino)-2-oxoethyl)-1-methyl4Hbenzo[f][1,2,4]triazolo [4,3-a][1,4]diazepin-8-yl)boronic acid by Western blot based Combinatorial Ubiquitination Real-time PROteolysis analysis.

Assay [13] has the same target. Description: PROTAC activity at BRD4/VHL in human MCF7 cells assessed as induction of BRD4 degradation by measuring residual activity at 30 nM incubated for 24 hrs in presence of 3 uM BRD4 based ligand ((4S)-6-(4-chlorophenyl)-4-(2-(ethylamino)-2-oxoethyl)-1-methyl4Hbenzo[f][1,2,4]triazolo [4,3-a][1,4]diazepin-8-yl)boronic acid by Western blot based Combinatorial Ubiquitination Real-time PROteolysis analysis.

Assay [14] has the same target. Description: PROTAC activity at BRD4/VHL in human MCF7 cells assessed as reduction in BRD4 level incubated for 24 hrs in presence of VHL based ligand ((4S)-6-(4-chlorophenyl)-4-(2-(ethylamino)-2-oxoethyl)-1-methyl4Hbenzo[f][1,2,4]triazolo [4,3-a][1,4]diazepin-8-yl)boronic acid by Western blot based Combinatorial Ubiquitination Real-time PROteolysis analysis.
The target is the same in assay [15]. In words: PROTAC activity at BRD4/VHL in human MCF7 cells assessed as induction of BRD4 degradation by measuring residual activity at 300 nM incubated for 24 hrs in presence of 3 uM BRD4 based ligand ((4S)-6-(4-chlorophenyl)-4-(2-(ethylamino)-2-oxoethyl)-1-methyl4Hbenzo[f][1,2,4]triazolo [4,3-a][1,4]diazepin-8-yl)boronic acid by Western blot based Combinatorial Ubiquitination Real-time PROteolysis analysis.

Active and inactive are the calls of the source. The rule behind the calls is not given here.

For orientation: Emax means the maximal effect, on the per cent scale that the assay sets.

T1 sequence (P40337 whole entry, looked up, other chains not shown): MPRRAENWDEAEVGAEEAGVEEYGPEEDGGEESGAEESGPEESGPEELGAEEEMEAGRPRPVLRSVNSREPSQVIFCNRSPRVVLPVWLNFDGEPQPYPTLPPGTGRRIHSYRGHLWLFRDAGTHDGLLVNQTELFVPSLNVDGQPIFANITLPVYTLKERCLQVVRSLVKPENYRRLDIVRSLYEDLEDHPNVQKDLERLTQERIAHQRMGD

On to `CCNC(=O)C[C@@H]1N=C(c2ccc(Cl)cc2)c2cc(B(O)O)ccc2-n2c(C)nnc21`, for which, in [1], the Tmax is 22.2 h. Further, the Activity in [2] amounted to 51%; in assay [3], 89%; in assay [4] it was 55%; in assay [7], 64%; in assay [8], 68%; in [9], 74%. For the same compound, the results for the Emax in assay [5] and in [6] were 80% and 96%, respectively.
As for `Cc1ncsc1-c1ccc(CNC(=O)[C@@H]2C[C@@H](O)CN2C(=O)[C@@H](NC(=O)c2cccc(O)c2O)C(C)(C)C)cc1`, the Activity is 104% in assay [10]; 16% in [11]; 77% in assay [12]; 90% in [13]; 37% in assay [15]. For the same compound, the result in assay [14] was Active. Besides, the DC50 in [14] came to 358 nM.

(Values after ChEMBL document CHEMBL5543126, “Combinatorial Ubiquitination REal-time PROteolysis (CURE-PROs): A Modular Platform for Generating Reversible, Self-Assembling Bifunctional Targeted Degraders” (J Med Chem, 2024).)
